{
  "source": "paper PMC9321043",
  "about": "“Synthesis, Structure–Activity Relationships, and Parasitological Profiling of Brussonol Derivatives as New Plasmodium falciparum Inhibitors” (Pharmaceuticals, 2022)",
  "key": {"HepG2 cells": {"tested_on": "HepG2 cells", "assay": "Cytotoxic test on immortalized cells, MTT", "assay_type": "cell-based, human", "settings": "Homo sapiens, HepG2, 72 h", "experimental": "The cytotoxic effects of brussonol and derivatives were evaluated against the human hepatocellular carcinoma cell line (HepG2). The cells were cultivated in an RPMI medium supplemented with 10% (v/v) fetal bovine serum and 25 µg/mL gentamicin. Conditions for the cultivation of these cells were 37 °C and 5% CO2, and every 2 days the supplemented medium was changed.\nFor experimental procedures, the cells were trypsinized and transferred to a 96-well plate at 30,000 cells per well (180 µL). The plate was incubated at 37 °C and 5% CO2 to allow cell adhesion. Next, 20 µL of serial dilutions of the compounds tested were added to the plate, with a range of concentrations tested from 400–6.25 µM. Cells without any compounds were used as a positive control for growing and the wells containing only medium were used as negative controls. The plate was incubated for 72 h at 37 °C and 5% CO2. After incubation, a microscope was used to determine the highest compound concentration to be used in the experiments (highest concentration without precipitation). A colorimetric assay was used to evaluate cytotoxicity. This assay is based on the metabolic cell activity in the presence of 3-(4,5-dimethylthiazol-2-yl)-2,5-diphenyltetrazolium bromide (MTT). Shortly after incubation, 20 µL of a solution of MTT at 5 mg/mL (solubilized in phosphate buffer) is added to each well. The plate is incubated for 3 to 4 h at 37 °C to allow MTT cleavage in living cells. Then, the supernatant is removed, and 100 µL of dimethylsulfoxide (DMSO) is added to solubilize the purple formazan crystals. The absorbance, which is proportional to the number of viable cells, was determined using a SpectraMAX Plus 384 plate reader (Molecular Devices Corp., Sunnyvale, CA) (λ = 570 nm). All compounds described here were purchased from Sigma-Aldrich (verificar local).\nAfter the IC50 against the parasite and the human cell line is determined, it is possible to calculate the SI. It is calculated as the formula below:SI = IC50^HepG2/IC50^Pf.\nFor our reference, compounds with SI values higher than 10 are considered well tolerated by the cellular model used, and they are considered for further evaluation."}, "hemozoin formation": {"tested_on": "hemozoin formation", "assay": "Hemozoin formation inhibition assay", "assay_type": "biochemical", "settings": "hemin 25 µM, pH 4.8, 4 h, one experiment in triplicate", "experimental": "2. Hemozoin Formation Inhibition Assay\nThe hemozoin formation inhibition assay was performed as described previously.12 Briefly, serial 1:3 dilutions, in a 96‐well plate, wit h brussonol were made in a final volume of 20 μL in a concentration 10 times higher than the final concentration of the assay. Secondly, 90 μ L of freshly prepared hemin (at a final concentration of 25 μM) solution in 1M NaOAc/HOAc buffer pH 4.8 were added followed by addition of 90 μ L of 5.4 mg/L Tween 20 solution freshly prepared. The plates were let to stand for 4 hours at 37 °C followed by resuspension with multichannel pippete and read at 415 and 630 nm using a SpectraMAX Plus 384 plate reader (Molecular Devices Corp., Sunnyvale, CA).\nDue to the absence of enough compound, this experiment wa s performed only once, but with internal triplicate. Chloroquine (CQ) and pyrimethamine (PYR) were used as positive and negative control of inhibition, respectively.\nInhibition (%) = 100 – 100 x [(Aco ntro l – Asample) / (Acontrol - Amin)] Acontrol is the difference of the absorbance at 415 and 630 nm of the negative control (Hemin +, Tween 20 ‐, Compound ‐); Amin is the difference of the absorbance at 415 and 630 nm of the positive control (Hemin +, Tween 20 +, Compound ‐ ); Asample is the difference of the absorbance at 415 and 630 nm of the sample. The hemozoin formation inhibition assay was performed to evaluate if brussonol act inhibiting hemozoin formation in P. falciparum. CQ, which is a well‐known inhibitor of hemozoin […]\nFigure S1. Hemozoin formation inhibition assay. Different concentrations of CQ (black triangles), PYR (red squares) and brussonol (blue circles) were incubated with heme in triplicates. Th e absorbance was recorded at 415/630 nm to determine the hemozoin formation inhibition. […]"}, "P. falciparum K1 strain": {"tested_on": "P. falciparum K1 strain", "assay": "Resistance assessment, K1 strain", "assay_type": "cell-based", "settings": "Plasmodium falciparum"}, "P. falciparum 3D7 strain": {"tested_on": "P. falciparum 3D7 strain", "assay": "Chemical rescue assay with isopentenyl pyrophosphate (IPP)", "assay_type": "cell-based, Plasmodium falciparum", "settings": "for IC50: Plasmodium falciparum, 3D7 strain, 72 h", "text": "To evaluate whether brussonol interfered with the biosynthesis of […] in malaria parasites, we conducted a chemical rescue assay. The assay identifies compounds that interfere with the metabolism of isoprenoids by “rescuing” their growth inhibition through the supplementation of isopentenyl pyrophosphate (IPP), a key precursor of isoprenoid biosynthesis. […] Thus, the chemical rescue assay compares the IC50 values of the tested compound in the presence and absence of IPP. We used fosmidomycin (FOS) as a positive control for growth inhibition rescuing upon supplementation of IPP (Figure 7b). In this assay, compounds that interfere in the metabolism of isoprenoids show a significant increment in the IC50 value in the presence of IPP (Figure 7b).\nThe chemical rescue assay was carried out as described by Yeh and DeRisi (2011). This assay consists in verifying the IC50 value of the tested compounds with and without the isopentenyl pyrophosphate (IPP), purchased from Isoprenoids, LC (Florida, USA). Briefly, 3D7 strain ring stages were cultured in 96-well plates, with 0.5% parasitemia and 2% hematocrit. Non-parasitized erythrocytes and parasitized erythrocytes without drugs were used as growth controls, and fosmidomycin (FOS) was used as a positive control for chemical rescue. Serial dilutions of brussonol and FOS were prepared in duplicates. In the same 96-well plate, brussonol and FOS had their antiplasmodial activity evaluated with and without supplementation of 200 µM IPP. Plates were incubated for 72 h and analyzed by the SYBR Green I assay."}},
  "note": "Like-named read-outs stand apart in the source and are kept apart here.",
  "data": [
    {"smiles": "CC(C)c1cc2c(c(O)c1O)C[C@@]13CCCC(C)(C)[C@@H]1C[C@@H]2O3", "note": "[Compound 1, brussonol]", "values": [
      {"measurement": "IC50", "setting": "HepG2 cells", "result": "67 ± 4", "unit": "µM"},
      {"measurement": "hemozoin formation inhibition (in words)", "setting": "hemozoin formation; listed as Brussonol", "result": "do not act inhibiting hemozoin formation"},
      {"measurement": "hemozoin formation inhibition (in words)", "setting": "hemozoin formation; listed as brussonol", "result": "did not interfere with hemozoin polymerization"},
      {"measurement": "IC50", "setting": "P. falciparum K1 strain", "result": "6.6 ± 0.1", "unit": "µM"},
      {"measurement": "reversal of growth inhibition by IPP supplementation", "setting": "P. falciparum 3D7 strain; 200 µM IPP", "result": "did not reverse the growth inhibition"},
      {"measurement": "IC50", "setting": "P. falciparum 3D7 strain; with 200 µM IPP, read-out: IC50 in the presence of IPP", "result": "13.9 ± 0.2", "unit": "µM"},
      {"measurement": "IC50", "setting": "P. falciparum 3D7 strain; without IPP, read-out: IC50 in the absence of IPP", "result": "18 ± 1", "unit": "µM"}
    ]}
  ]
}
